The values below come from publication PMC9202104 (BMC Biology, 2022).

Read-outs that look alike come from different tables or passages of the source.

Series [1] has as its system ZIKV human strain R116265. The series is described as follows: ZIKV vertical transmission in pregnant Ifnar1−/− mice. Type of series: in vivo. The settings on record: 5 dpi. How it is done: Briefly, groups of 5 pregnant mice (10–12-week-old, E12-14) were i.p. injected with ST087010 (20 mg/kg of body weight, 200 μl/mouse), or DMSO (negative control), 12 h before and 6, 24, and 48 h after i.p. infection with ZIKV (human strain R116265, 10^3 PFU). Five days post-infection, mice were sacrificed; viral titers were assessed using plaque assay in the sera, placenta, fetal brain, and amniotic fluid, and uteri and fetuses were assessed for morphological and size changes. The placenta was also assessed for apoptosis and viral replication by immunofluorescence staining, as described below.
Immunofluorescence staining was carried out to detect ZIKV and caspase-3 signals in ZIKV-infected mouse tissues. Briefly, tissues were fixed in 4% formaldehyde, embedded in paraffin, and sectioned. The tissue sections were deparaffinized, fixed, and permed using the FIX and PERM Cell Permeabilization Kit (Thermo Fisher Scientific, Waltham, MA, USA). After blocking with 5% BSA, the tissue slides were incubated at 37°C 2 h with ZIKV EDIII-specific human mAb (ZV-67, 1:100, Absolute Antibody, Boston, MA, USA), or rabbit anti-active caspase-3 antibody (1:100, Abcam). The slides were washed with PBS and incubated for 30 min with anti-human FITC antibody (1:100, for ZIKV), or anti-rabbit Alexa Fluor 647 antibody (1:100, for caspase-3). The slides were then counterstained for nuclei, using DAPI (300 nM, Thermo Fisher Scientific, Waltham, MA, USA) for 5 min, and mounted in VectaMount Permanent Mounting Medium (Vector Laboratories, CA, USA). The slides were analyzed using a confocal microscope (Zeiss LSM 880) and ZEN software, and fluorescent signals were quantified by ImageJ software.

For series [2], the target named is T1, ZIKV full-length envelope (E) protein (Zika virus, UniProt Q32ZE1).
T1 construct: ZIKV full-length E (Aviva Systems Biology, San Diego, CA, USA); purchased Aviva Systems Biology
T1 sequence (Q32ZE1 291-790): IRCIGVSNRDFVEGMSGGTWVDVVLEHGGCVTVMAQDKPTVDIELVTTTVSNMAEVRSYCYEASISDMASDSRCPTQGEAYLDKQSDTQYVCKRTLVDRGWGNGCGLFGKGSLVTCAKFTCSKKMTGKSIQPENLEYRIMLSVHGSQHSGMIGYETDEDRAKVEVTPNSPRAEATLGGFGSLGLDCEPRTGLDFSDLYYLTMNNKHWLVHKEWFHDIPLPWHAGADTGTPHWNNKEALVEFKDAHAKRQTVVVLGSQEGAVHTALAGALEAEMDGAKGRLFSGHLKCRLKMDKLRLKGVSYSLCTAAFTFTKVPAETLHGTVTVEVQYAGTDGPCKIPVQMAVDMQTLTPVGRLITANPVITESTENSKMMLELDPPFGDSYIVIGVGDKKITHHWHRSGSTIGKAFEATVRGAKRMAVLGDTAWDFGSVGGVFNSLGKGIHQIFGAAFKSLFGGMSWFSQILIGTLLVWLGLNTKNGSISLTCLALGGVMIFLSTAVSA
Kind of series: ELISA binding to ZIKV full-length E protein. How it is done: Briefly, ELISA plates were coated with each protein (1 μg/ml) at 4°C overnight and were then incubated with blocking buffer containing 2% fat-free milk in PBST (0.05% Tween-20) at 37°C for 2 h. The above compounds, or DMSO control, at serial dilutions were added to the plates and incubated at 37°C for 2 h. After three washes using PBST, the plates were incubated at 37°C for 2 h with ZIKV EDIII-specific human mAb ZKA64-LALA (0.5 μg/ml) (for binding to ZIKV full-length E or EDIII protein), or ZIKV NS2B-NS3-specific mouse sera (for binding to NS2B-NS3 protein). After further washes, the plates were incubated with horseradish peroxidase (HRP)-conjugated anti-human IgG-Fab (1:3,000, Abcam, Cambridge, MS, USA) or anti-mouse IgG (1:3,000, Sigma) antibody at 37°C for 1 h. The plates were incubated with substrate TMB (3,3′,5,5′-tetramethylbenzidine) for 1 min, and the reaction was stopped by addition of 1 N H2SO4. Absorbance at 450 nm (A450 values) was measured by an ELISA microplate reader. Percent binding (% binding) to the E, EDIII, or NS2B-NS3 protein was calculated in the presence or absence of serially diluted compounds using the formula ((1-(E/EDIII/NS2B-NS3-compound)/(E/EDIII/NS2B-NS3))×100), based on which EC50 was calculated using the CalcuSyn program.

A short description of the next series: in vitro. It is filed as cell-based. The settings on record: rhesus monkey. Here is the method:
Briefly, compounds at 2-fold serial dilutions were added to the respective cells (2.0×10^4/well) pre-seeded in 96-well plates. The cells were cultured at 37°C in the presence of 5% CO2 for 3 days, […] incubated with CCK8 solution, followed by measurement of absorbance at 450 nm (A450 value), using a microplate reader (Infinite F200PRO, Tecan, Morrisville, NC, USA). CC50 of compounds was calculated using the CalcuSyn program.

Another series deals with T2, ZIKV NS2B-NS3 protein (Zika virus, UniProt Q32ZE1).
T2 construct: fused with the genes encoding NS3 protein (residues 1-185) through a linker (Gly4-Thr-Gly4); His6 (C); made in house; host or cells: E. coli
T2 sequence (Q32ZE1 1499-1683, added parts left off, change not shown): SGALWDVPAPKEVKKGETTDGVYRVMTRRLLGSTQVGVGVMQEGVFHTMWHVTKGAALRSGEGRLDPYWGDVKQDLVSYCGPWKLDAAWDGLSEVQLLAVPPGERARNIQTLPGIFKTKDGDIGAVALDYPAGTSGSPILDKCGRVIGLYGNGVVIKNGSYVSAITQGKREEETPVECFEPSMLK
Kind of series: SPR binding to ZIKV NS2B-NS3. Here is the method:
(§1) (GE Healthcare, Port Washington, NY, USA). Briefly, ZIKV EDIII protein or NS2B-NS3 protein was immobilized on a sensor chip (CM5) using the Amine Coupling Kit (GE Healthcare). Serially diluted ST087010 was added as analytes, and HBS-EP with 10% DMSO (10 mM HEPES, 150 mM NaCl, 3 mM EDTA, 0.05% Tween-20, 10% DMSO, pH 7.4) was used as a running buffer. Biacore BK evaluation software (version 1.1) was applied to analyze the data, and the curve was fitted with a 1:1 binding model.

In series [3] the test system is ZIKV human strain PAN2016 (2016/Panama). Kind of series: Plaque assay, inhibition of ZIKV infection (strain PAN2016). Here is the method: (§2) After removal of the unbound compounds by centrifugation (after addition of 3% PEG-6000), ZIKV was incubated with Vero E6 cells in 24-well plates at 37°C for 1 h. The cells were then washed with PBS, overlaid with DMEM containing 1% carboxymethyl cellulose and 2% FBS, and cultured at 37°C for 4–5 days, followed by being stained with 0.5% crystal violet. […] Plaques in each well were calculated, and IC50 of compounds for each compound was calculated using the CalcuSyn computer program.

In series [4] the test system is ZIKV human strain R116265. Kind of series: Plaque assay, inhibition of ZIKV infection (strain R116265). Type of series: cell-based. The settings on record: Zika virus, Vero C1008, Vero E6 cells. Here is the method: as §2
Series [5] relates to ZIKV human strain R103451. The series is described as follows: Lethal ZIKV challenge in adult Ifnar1−/− mice, survival and weight. It is filed as in vivo. Here is the method: Briefly, 7–8-week-old male mice were used, and two separate experiments were performed. […] These mice were i.p. infected with ZIKV (human strain R103451, 200 PFU/mouse) and observed daily for weight changes and survival until 21 dpi. […] Five days later, these mice were sacrificed, and their tissues, including the heart, testis, eye, kidney, and brain, were collected for detection of viral titers by plaque assay, or apoptosis by immunofluorescence staining. Mice losing 20% of initial weight with severe symptoms, including hind limb weakness and paralysis, or 25% of initial weight, were humanely euthanized with an overdose isoflurane in a Bell Jar, followed by cervical dislocation.

Another series deals with T3, ZIKV EDIII protein (Zika virus, UniProt A0A024B7W1).
T3 construct: EDIII (residues 298-409 in E protein containing a C-terminal human Fc tag); human Fc (C)
T3 sequence (A0A024B7W1 588-699): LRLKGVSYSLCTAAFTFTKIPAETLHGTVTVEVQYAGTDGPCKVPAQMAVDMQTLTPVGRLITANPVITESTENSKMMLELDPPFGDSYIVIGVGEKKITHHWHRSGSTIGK
The series is described as follows: SPR binding to ZIKV EDIII. Here is the method: as §1

In the case of `Cc1cc2c(C(C)C)c(O)c(O)c(/C=N/n3c(=O)[nH][nH]c3=O)c2c(O)c1-c1c(C)cc2c(C(C)C)c(O)c(O)c(/C=N/n3c(=O)[nH][nH]c3=O)c2c1O` [ST087010], the “Staining of ZIKV+ or caspase-3 signals in placental tissues” value in series [1] (immunofluorescence, compared to DMSO) is listed as “undetectable, or diminished”. Further, in series [1] (pregnant mice, 20 mg/kg i.p., ZIKV R116265 10^3 PFU, compared to DMSO), the “Viral titers in sera, placenta, fetal brain, and amniotic fluid” value is recorded as “significantly reduced”. Besides, the Condition of fetuses entry in series [1] (pregnant mice, 20 mg/kg i.p., ZIKV R116265) was “all in good condition”. In series [2], the response was half-maximal at 6.47 µM (EC50). The compound also yielded a CC50 at 3 days in “in vitro” of 47.2 ± 1.35 µM. Further, the Kd at ZIKV NS2B-NS3 protein came to 19.9 µM; at ZIKV EDIII protein, 4.95 µM. The “SI (CC50/IC50)” value in series [3] (CC50 Vero E6 / IC50 ZIKV PAN2016) stood at 15.63. Further, the IC50 was determined as 3.2 µM in series [3] (Zika virus, Vero C1008, in Homo sapiens, read-out: IC50 against infection of ZIKV PAN2016, plaque assay, Vero E6 cells); 3.17 ± 0.18 µM in series [3] (read-out: IC50 against infection of ZIKV PAN2016, plaque assay, Vero E6 cells); 2.9 µM in series [4]. In addition, in series [5] (20 mg/kg i.p. 12 h before and 6, 24, 48 h post-infection, ZIKV R103451 200 PFU, observed 21 days), the “Mice protected from death (survival)” value amounted to 50%. In addition, the Weight loss entry in series [5] (20 mg/kg i.p., ZIKV R103451 200 PFU, ST087010 figure during 6–12 dpi) is listed as “less than 25%”. In series [5] (20 mg/kg i.p., ZIKV R103451, until 21 dpi), the “Body weight relative to weight before the virus infection” value is reported as 85%.
